This assay concerns the target human mGluR5 (Homo sapiens, UniProt P41594). In words: Cell-based functional assay: Ca2+ mobilization (FDSS), potentiation of glutamate EC20 response. The note with it: HEK cells transfected with human mGluR5 (H10H or H12H cell line); positive allosteric modulation in presence of glutamate EC20. The procedure: Human embryonic kidney (HEK) cells transfected with rat mGluR5 were plated in clear bottom assay plates for assay in a Functional Drug Screening System (FDSS). In the alternative assay, HEK cells transfected with human mGluR5 were plated for assay in the FDSS. In some cases the HEK cells transfected with human mGluR5 were the H10H cell line. Alternatively, the HEK cells transfected with human mGluR5 were the H12H cell line. […] The cells were loaded with a Ca^2+-sensitive fluorescent dye (e.g., Fluo-4), and the plates were washed and placed in the FDSS instrument. After establishment of a fluorescence baseline for twelve seconds, the compounds of the present invention were added to the cells, and the response in cells was measured. Alternatively, in various further aspects, after establishment of a fluorescence baseline for about three seconds, the compounds of the present invention were added to the cells, and the response in cells was measured. Five minutes later, an mGluR5 agonist (e.g., glutamate, 3,5-dihydroxyphenylglycine, or quisqualate) was added to the cells, and the response of the cells was measured. Potentiation of the agonist response of mGluR5 by the compounds in the present invention was observed as an increase in response to non-maximal concentrations of agonist (here, glutamate) in the presence of compound compared to the response to agonist in the absence of compound.
The above described assay operated in two modes. In the first mode, a range of concentrations of the present compounds were added to cells, followed by a single fixed concentration of agonist. If a compound acted as a potentiator, an EC50 value for potentiation and a maximum extent of potentiation by the compound at this concentration of agonist was determined by non-linear curve fitting. In the second mode, several fixed concentrations of the present compounds were added to various wells on a plate, followed by a range of concentrations of agonist for each concentration of present compound; the EC50 values for the agonist at each concentration of compound were determined by non-linear curve fitting. A decrease in the EC50 value of the agonist with increasing concentrations of the present compounds (a leftward shift of the agonist concentration-response curve) is an indication of the degree of mGluR5 potentiation at a given concentration of the present compound. An increase in the EC50 value of the agonist with increasing concentrations of the present compounds (a rightward shift of the agonist concentration-response curve) is an indication of the degree of mGluR5 antagonism at a given concentration of the present compound. The second mode also indicates whether the present compounds also affect the maximum response to mGluR5 to agonists.
Table 1 below lists specific compounds as well as experimentally determined mGluR5 activity determined in a cell-based assay. The examples shown in Table I are provided so that the invention might be more fully understood, and these examples are illustrative only and should not be construed as limiting the invention in any way. The mGluR5 activity was determined using the metabotropic glutamate receptor activity assays in human embryonic kidney cells as described herein, wherein the human embryonic kidney cells were transfected with human mGluR5. The compounds in Table 1 were synthesized with methods identical or analogous to those shown herein. The column labeled “Rxn” and the data thereunder indicated in Table 1 refers to the Reaction Scheme number described above. The requisite starting materials were commercially available, described in the literature, or readily synthesized by one skilled in the art of organic synthesis. Compounds shown in Table I are depicted having a basic group or acidic group and named as the free base acid. […]
(In general: A change in cytosolic calcium serves as a functional read-out for many receptors and channels.)

Each structure is given as a SMILES string.

The term EC50 denotes the concentration at which the effect is half-maximal.

Chain of human mGluR5 (P41594 21-1180 isoform P41594-2 limits assumed): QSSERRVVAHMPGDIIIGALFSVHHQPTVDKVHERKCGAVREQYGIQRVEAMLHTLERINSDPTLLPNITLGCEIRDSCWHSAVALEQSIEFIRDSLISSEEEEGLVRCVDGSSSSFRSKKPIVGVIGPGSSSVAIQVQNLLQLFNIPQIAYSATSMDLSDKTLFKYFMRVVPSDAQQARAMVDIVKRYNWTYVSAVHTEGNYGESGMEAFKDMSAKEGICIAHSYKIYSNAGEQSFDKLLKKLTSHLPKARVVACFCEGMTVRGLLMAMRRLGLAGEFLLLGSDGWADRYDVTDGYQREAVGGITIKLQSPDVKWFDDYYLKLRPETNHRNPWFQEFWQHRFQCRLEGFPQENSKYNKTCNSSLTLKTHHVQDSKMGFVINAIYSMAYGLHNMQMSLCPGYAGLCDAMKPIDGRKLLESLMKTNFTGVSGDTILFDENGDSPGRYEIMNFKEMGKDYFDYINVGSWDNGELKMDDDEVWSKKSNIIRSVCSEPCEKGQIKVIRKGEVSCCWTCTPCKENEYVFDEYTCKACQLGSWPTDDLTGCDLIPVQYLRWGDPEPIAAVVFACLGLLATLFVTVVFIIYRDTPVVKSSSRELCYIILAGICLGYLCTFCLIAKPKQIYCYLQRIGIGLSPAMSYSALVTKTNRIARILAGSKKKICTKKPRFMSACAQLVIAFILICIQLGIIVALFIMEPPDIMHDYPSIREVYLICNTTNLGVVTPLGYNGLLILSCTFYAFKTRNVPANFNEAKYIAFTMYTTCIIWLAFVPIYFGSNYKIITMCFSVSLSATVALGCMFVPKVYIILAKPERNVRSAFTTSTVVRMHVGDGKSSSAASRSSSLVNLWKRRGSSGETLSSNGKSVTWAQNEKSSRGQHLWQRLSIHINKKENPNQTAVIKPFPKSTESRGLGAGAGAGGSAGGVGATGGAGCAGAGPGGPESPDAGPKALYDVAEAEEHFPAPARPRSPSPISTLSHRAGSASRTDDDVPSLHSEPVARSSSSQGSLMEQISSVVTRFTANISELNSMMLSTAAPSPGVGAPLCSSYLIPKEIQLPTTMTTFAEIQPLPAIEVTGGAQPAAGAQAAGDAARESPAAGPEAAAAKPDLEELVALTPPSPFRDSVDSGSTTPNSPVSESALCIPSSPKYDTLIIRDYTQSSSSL

For the compound `O=C(C1CC1)N1CCc2ncc(OCc3cccc(F)c3)cc2C1` [Compound 6], the EC50 is > 30000 nM.
The same measure for `O=C(c1ccc(F)cc1)N1CCc2ncc(COc3ccc(F)cc3)cc2C1` [Compound 3, (3-((4-fluorophenoxy)methyl)-7,8-dihydro-1,6-naphthyridin-6(5H)-yl)(4-fluorophenyl)methanone]: 910 nM.
To `O=C(c1ccc(F)cc1)N1CCc2ncc(COc3ccccc3)cc2C1` [Compound 1, (4-Fluorophenyl)(3-(phenoxymethyl)-7,8-dihydro-1,6-naphthyridin-6(5H)-yl)methanone] belongs 380 nM; to `O=C(c1cccc(F)c1)N1CCc2ncc(OCc3cccc(F)c3)cc2C1` [Compound 5], > 30000 nM; to `O=C(c1ccc(F)cc1)N1CCc2ncc(COc3cccc(F)c3)cc2C1` [Compound 2, (3-((3-fluorophenoxy)methyl)-7,8-dihydro-1,6-naphthyridin-6(5H)-yl) (4-fluorophenyl)methanone], 690 nM.
To `CC(C)(C)OC(=O)N1CCc2ncc(OCc3cccc(F)c3)cc2C1` [Compound 4] belongs > 30000 nM.

The values are drawn from patent US8710074B2, “Dihydronaphthyridinyl(organo)methanone analogs as positive allosteric mGluR5 modulators” (Vanderbilt University, priority 2011, dated 2014).
